The assay concerns ovulation in female rats. The experiment in a line: Anti-ovulatory test in proestrous female rats. Format: in vivo, Sprague-Dawley rats. As to the method: In vivo tests were conducted with female rats (225 to 250 grams body weight). […] The test was conducted with mature Sprague-Dawley rats, unanesthetized, proestrous rats. On the afternoon of proestrous, each rat in the test group received six subcutaneous injections of the acetate salt of formula I in corn oil, each injection being given a half hour following the previous injection. The rats are sacrificed the next morning and the number of animals ovulating and the number of ova shed are recorded following the procedure described by E. S. France, Neuroendocrinology 6, pp 77-89 (1970). The absence of or a significant decrease in the number of ova is the criterion for an anti-ovulation effect.

Where a SMILES comes first, the peptide text is derived from it. [ ]: non-standard residue; d: D form. pGlu = O=C1CC[C@@H](C(=O)O)N1

For `CC(C)C[C@H](NC(=O)[C@@H](CCCCN)NC(=O)[C@H](Cc1ccc(O)cc1)NC(=O)[C@H](CO)NC(=O)[C@H](Cc1c[nH]c2ccccc12)NC(=O)[C@@H]1CCC(=O)N1)C(=O)N[C@@H](CCCNC(=N)N)C(=O)N1CCC[C@H]1C(=O)NCC(N)=O` [Example 3, L-Pyroglutamyl-L-tryptophyl-L-seryl-L-tyrosyl-D-lysyl-L-leucyl-L-arginyl-L- prolyl-glycinamide] ([pGlu]WSY[dK]LRPG-NH2), the Inhibition of ovulation entry (1 mg per injection, six subcutaneous injections in corn oil, half an hour apart, on the afternoon of proestrous, rats sacrificed next morning) is given as “complete inhibition of ovulation”. Also, where the note is “mature unanesthetized proestrous female Sprague-Dawley rats (225 to 250 g), dose of about 24 mg/kg, subcutaneous in corn oil”, the Ovulation inhibition entry is on record as “all of the rats tested”.

The record behind these values is patent US3937695A, “P-Glu-Trp-Ser-Tyr-D-Lys-Leu-Arg-Pro-Gly-NH2 and intermediates” (American Home Products Corporation, priority 1974, dated 1976).
